“And” between values parts separate entries of the source, which are not always exact repeats. Equal entries are not always repeated. Where two headings read alike, the source gives them in different places.
Key:
[1] = system: Plasmodium falciparum 3D7/MRA-102; test: In vitro antiplasmodial activity; format: cell-based; settings: for IC50: chloroquine-sensitive strain 3D7/MRA-102, 48 h incubation, n = 3, read-out: Pf IC50 ± SD; for antiplasmodial activity in words: P. falciparum 3D7/MRA-102
[2] = Lipophilicity determination by RP-HPLC (log of capacity factor k); format: physicochemical; settings: C18, isocratic methanol 72%/water 28%
Procedure: Among the important parameters characterizing the physicochemical properties of the compounds, we studied the lipophilicity and electronic relations in the molecule. […] The lipophilicity was determined using RP-HPLC as the logarithm of capacity factor k. The retention times of individual compounds were determined under isocratic conditions, with methanol as an organic modifier in the mobile phase using end-capped non-polar C18 stationary RP columns. In addition, the lipophilicity expressed as log P and Clog P was calculated using two commercially available programs: ACD/Percepta ver.
A chromatographic column Symmetry® C18 5 μm, 4.6 × 250 mm, Part No. W21751W016 (Waters Corp., Milford, MA, USA) was used. The HPLC separation process was monitored by the EZ CHROM Elite® software ver. 3.2.0 (Hitachi High Technologies America). The total flow of the column was 1.0 mL/min, injection 10 μL, column temperature 40 °C, and sample temperature 10 °C. The detection wavelength 214 nm was chosen. A KI methanolic solution was used for the dead time (tD) determination. Retention times (tR) were measured in minutes. […] The capacity factors were calculated according to the formula k = (tR − tD)/tD, where tR is the retention time of the solute and tD is the dead time obtained using an unretained analyte. Each experiment was repeated three times.

[3] = system: Mycobacterium tuberculosis H37Ra/ATCC 25177; design: method as in PMID 30087309, PMID 32916979; settings: M. tuberculosis H37Ra/ATCC 25177; cited from earlier work
[4] = system: THP1-Blue™ NF-κB cells; settings: read-out: cytotoxicity IC50; human monocytic leukemia cell line THP1-Blue™ NF-κB; cited from earlier work
[5] = Plasmodium falciparum, 3D7, 48 h

Row | Structure (SMILES) | IC50 [1, 5] [µM] | log k [2] | Mtb MIC [3] [µM] | IC50 [1] [µM] | IC50 [4] [µM] | antiplasmodial activity in words [1]
1 | CCN(CC)CCCC(C)Nc1ccnc2cc(Cl)ccc12 (stereo not shown) [CQ, chloroquine, reference compound] | 0.5 ± 0.2 | – | – | – | – | –
2 | Cc1cccc(NC(=O)/C=C/c2ccccc2)c1 [Compound 2, (2E)-N-(3-methylphenyl)-3-phenyl-prop-2-enamide] | 21.6 | 0.2729 | 67.4 | 21.9 ± 6.3 | – | –
3 | Cc1ccc(NC(=O)/C=C/c2ccccc2)cc1 [Compound 3] | > 35 | 0.2640 | 134 | – | – | –
4 | O=C(/C=C/c1ccccc1)Nc1cccc(C(F)(F)F)c1 [Compound 6] | > 35 | 0.4859 | 27.5 | – | 11.6 ± 1.13 | –
5 | Cc1ccc(C)c(NC(=O)/C=C/c2ccccc2)c1 [Compound 7] | > 35 | 0.2691 | 254 | – | – | –
6 | O=C(/C=C/c1ccccc1)Nc1ccc(Cl)cc1Cl [Compound 8] | > 35 | 0.5278 | – | – | – | inactive
7 | O=C(/C=C/c1ccccc1)Nc1cc(Cl)ccc1Cl [Compound 9] | > 35 | 0.5799 | 876 | – | – | –
8 | O=C(/C=C/c1ccccc1)Nc1c(Cl)cccc1Cl [Compound 10] | > 35 | 0.0632 | 876 | – | – | –
9 | O=C(/C=C/c1ccccc1)Nc1ccc(Cl)c(Cl)c1 [Compound 11] | > 35 | 0.6821 | 27.4 | – | 6.28 ± 2.32 | –
10 | O=C(/C=C/c1ccccc1)Nc1cc(Cl)cc(Cl)c1 [Compound 12] | > 35 | 0.8155 | 27.4 | – | 2.43 ± 1.06 | –
11 | O=C(/C=C/c1ccccc1)Nc1ccc(Br)cc1Br [Compound 13] | > 35 | 0.6152 | >339 | – | – | inactive
12 | O=C(/C=C/c1ccccc1)Nc1c(Br)cccc1Br [Compound 14] | > 35 | 0.0992 | 167 | – | – | –
13 | O=C(/C=C/c1ccccc1)Nc1cc(C(F)(F)F)cc(C(F)(F)F)c1 [Compound 15, (2E)-N-[3,5-bis(trifluoromethyl)phenyl]-3-phenylprop-2-enamide] | 6.5 ± 3.6 | 0.9814 | 22.3 | – | 2.17 ± 1.19 | –
14 | COc1ccc([N+](=O)[O-])cc1NC(=O)/C=C/c1ccccc1 [Compound 16] | > 35 | 0.1581 | >859 | – | – | –
15 | O=C(/C=C/c1ccccc1)Nc1ccc([N+](=O)[O-])cc1C(F)(F)F [Compound 17] | > 35 | 0.3794 | >381 | – | – | –
16 | O=C(/C=C/c1ccccc1)Nc1ccc([N+](=O)[O-])c(C(F)(F)F)c1 [Compound 18, (2E)-N-[4-nitro-3-(trifluoromethyl)phenyl]-3-phenylprop-2-enamide] | 2.2 ± 1.9 | 0.5004 | >381 | – | – | –
17 | O=C(/C=C/c1ccccc1)Nc1cc(Cl)ccc1F [Compound 19] | 16 ± 4.2 | 0.36 and 0.3692 | >465 | – | – | –
18 | O=C(/C=C/c1ccccc1)Nc1cc(Br)ccc1F [Compound 20] | > 35 | 0.4875 | 199 | – | – | –

Row | Structure (SMILES) | IC50 [1, 5] [µM] | log k [2] | Mtb MIC [3] [µM] | IC50 [1] [µM] | IC50 [4] [µM] | antiplasmodial activity in words [1]
19 | O=C(/C=C/c1ccccc1)Nc1ccc(Br)c(F)c1 [Compound 21] | 10.3 ± 4.6 | – | >414 | – | – | –
20 | O=C(/C=C/c1ccccc1)Nc1ccc(C(F)(F)F)c(F)c1 [Compound 22] | 9.3 ± 5.3 | 0.5789 | >414 | – | – | –
21 | O=C(/C=C/c1ccccc1)Nc1cc(F)ccc1Br [Compound 23, (2E)-N-(2-bromo-5-fluorophenyl)-3-phenylprop-2-enamide] | 3.8 ± 0.61 | 0.4588 | 199 | – | – | –
22 | O=C(/C=C/c1ccccc1)Nc1ccc(Br)cc1Cl [Compound 24, (2E)-N-(4-bromo-2-chlorophenyl)-3-phenylprop-2-enamide] | 0.58 ± 0.002 | 0.6710 | >766 | – | – | –
23 | O=C(/C=C/c1ccccc1)Nc1ccc(Br)c(Cl)c1 [Compound 25] | 8.2 ± 4.7 | 0.6611 | >383 | – | 6.5 ± 1 | –
24 | O=C(/C=C/c1ccccc1)Nc1ccc(Cl)cc1Br [Compound 26] | > 35 | 0.5476 | >383 | – | – | –
25 | O=C(/C=C/c1ccccc1)Nc1cc(C(F)(F)F)ccc1Cl [Compound 27] | > 35 | 0.6178 | 785 | – | – | –
26 | O=C(/C=C/c1ccccc1)Nc1cc(C(F)(F)F)ccc1Br [Compound 28] | > 35 | 0.5561 | >348 | – | – | –
27 | O=C(/C=C/c1ccccc1)Nc1ccc(F)cc1C(F)(F)F [Compound 29] | > 35 | 0.1607 | >414 | – | – | –
28 | O=C(/C=C/c1ccccc1)Nc1ccc(Cl)cc1C(F)(F)F [Compound 30] | > 35 | 0.4113 | >394 | – | – | –
29 | O=C(/C=C/c1ccccc1)Nc1ccc(Br)cc1C(F)(F)F [Compound 31] | > 35 | 0.4683 | >348 | – | – | –
30 | O=C(/C=C/c1ccccc1)Nc1c(F)cc(F)cc1F [Compound 32, (2E)-3-phenyl-N-(2,4,6-trifluorophenyl)-prop-2-enamide] | > 35 | −0.0831 | >462 | – | – | –
31 | O=C(/C=C/c1ccccc1)Nc1cc(F)c(F)c(F)c1 [Compound 33] | 4.3 ± 2.4 | 0.4893 | >462 | – | – | –
32 | O=C(/C=C/c1ccccc1)Nc1cc(Cl)c(Cl)cc1Cl [Compound 34] | > 35 | 0.8373 | – | – | – | –
33 | O=C(/C=C/c1ccccc1)Nc1cc(Cl)c(Cl)c(Cl)c1 [Compound 35, (2E)-3-phenyl-N-(3,4,5-trichlorophenyl)prop-2-enamide] | 13 ± 3.8 | 0.9671 | >395 | – | – | –
34 | O=C(/C=C/c1ccccc1)Nc1c(Br)cc(C(F)(F)F)cc1Br [Compound 36, (2E)-N-[2,6-dibromo-4-(trifluoromethyl)-phenyl]-3-phenylprop-2-enamide] | 2 ± 1.9 | 0.4321 | >287 | – | – | –
35 | O=C(/C=C/c1ccccc1)Nc1c(Br)cc(F)c(Cl)c1Br [Compound 37] | > 35 | 0.3139 | >298 | – | – | –
36 | NNC(=O)c1ccncc1 [INH, isoniazid, reference compound] | – | – | 36.6 | – | – | –
